According to ChEMBL document CHEMBL5120839, “Design, synthesis and antibacterial activity of novel pleuromutilin derivatives with thieno[2,3-d]pyrimidine substitution” (Eur J Med Chem, 2022):
Converted amounts (≈) assume the structure as drawn.

How the values were obtained:
Type in all cases: functional
[1] = system: Staphylococcus aureus; assay: Antibacterial activity against Staphylococcus aureus assessed as inhibition of bacterial growth incubated for 24 hrs by microbroth two-fold dilution method
[2] = system: Escherichia coli; assay: Antibacterial activity against Escherichia coli assessed as inhibition of bacterial growth incubated for 24 hrs by microbroth two-fold dilution method
[3] = system: Staphylococcus aureus; assay: Antibacterial activity against Staphylococcus aureus assessed as diameter of the inhibition circle at 1 mg/ml incubated for 48 hrs
[4] = system: Streptococcus agalactiae; assay: Antibacterial activity against Streptococcus agalactiae assessed as inhibition of bacterial growth incubated for 24 hrs by microbroth two-fold dilution method

Row | SMILES | MIC [1] [µg/mL] | MIC [2] [µg/mL] | inhibition zone diameter [3] [mm] | MIC [4] [µg/mL] | Activity [3] [mM]
1 | C=C[C@]1(C)C[C@@H](OC(=O)CSc2nc(N/N=C/c3ccc(F)cc3)c3ccsc3n2)[C@]2(C)[C@H](C)CC[C@]3(CCC(=O)[C@H]32)[C@@H](C)[C@@H]1O | 7.81 (≈ 11.7 µM) | 15.6 (≈ 23.5 µM) | 20.2 | 0.244 (≈ 0.367 µM) | –
2 | C=C[C@]1(C)C[C@@H](OC(=O)CSc2nc(N3CCC(N(C)C)CC3)c3ccsc3n2)[C@]2(C)[C@H](C)CC[C@]3(CCC(=O)[C@H]32)[C@@H](C)[C@@H]1O | 0.244 (≈ 0.373 µM) | 3.91 (≈ 5.96 µM) | 27.2 | 0.122 (≈ 0.186 µM) | –
3 | C=C[C@]1(C)C[C@@H](OC(=O)CSc2ncc(C)c(NCCO)n2)[C@]2(C)[C@H](C)CC[C@]3(CCC(=O)[C@H]32)[C@@H](C)[C@@H]1O | 0.244 (≈ 0.447 µM) | 3.91 (≈ 7.16 µM) | 27.6 | 0.122 (≈ 0.224 µM) | –
4 | C=C[C@]1(C)C[C@@H](OC(=O)CSc2nc(N(C)C)c3ccsc3n2)[C@]2(C)[C@H](C)CC[C@]3(CCC(=O)[C@H]32)[C@@H](C)[C@@H]1O | 3.91 (≈ 6.83 µM) | 15.6 (≈ 27.3 µM) | 21.8 | 1.95 (≈ 3.42 µM) | –
5 | C=C[C@]1(C)C[C@@H](OC(=O)CSc2nc(N3CCN(C)CC3)c3ccsc3n2)[C@]2(C)[C@H](C)CC[C@]3(CCC(=O)[C@H]32)[C@@H](C)[C@@H]1O | 0.122 (≈ 0.195 µM) | 7.81 (≈ 12.5 µM) | 26.1 | 0.244 (≈ 0.389 µM) | –
6 | C=C[C@]1(C)C[C@@H](OC(=O)CSc2nc(N/N=C/c3ccc(OC)cc3O)c3ccsc3n2)[C@]2(C)[C@H](C)CC[C@]3(CCC(=O)[C@H]32)[C@@H](C)[C@@H]1O | 7.81 (≈ 11.3 µM) | > 15.6 | 23 | 0.244 (≈ 0.352 µM) | –
7 | C=C[C@]1(C)C[C@@H](OC(=O)CSc2nc(N3CCC(C)CC3)c3ccsc3n2)[C@]2(C)[C@H](C)CC[C@]3(CCC(=O)[C@H]32)[C@@H](C)[C@@H]1O | 15.6 (≈ 25 µM) | > 15.6 | 10.9 | 7.81 (≈ 12.5 µM) | –
8 | C=C[C@]1(C)C[C@@H](OC(=O)CSc2nc(N/N=C/c3ccc(F)cc3F)c3ccsc3n2)[C@]2(C)[C@H](C)CC[C@]3(CCC(=O)[C@H]32)[C@@H](C)[C@@H]1O | 7.81 (≈ 11.4 µM) | > 15.6 | 22.8 | 0.061 (≈ 0.0893 µM) | –
9 | C=C[C@]1(C)C[C@@H](OC(=O)CSc2nccc(NCCO)n2)[C@]2(C)[C@H](C)CC[C@]3(CCC(=O)[C@H]32)[C@@H](C)[C@@H]1O | 0.122 (≈ 0.23 µM) | 3.91 (≈ 7.35 µM) | – | 0.488 (≈ 0.918 µM) | 27.3
10 | C=C[C@]1(C)C[C@@H](OC(=O)CSc2nc(N3CCOCC3)c3ccsc3n2)[C@]2(C)[C@H](C)CC[C@]3(CCC(=O)[C@H]32)[C@@H](C)[C@@H]1O | 0.122 (≈ 0.199 µM) | 1.95 (≈ 3.18 µM) | 21.6 | 0.061 (≈ 0.0994 µM) | –
11 | C=C[C@]1(C)C[C@@H](OC(=O)CSc2nc(N/N=C/c3ccccc3OC)c3ccsc3n2)[C@]2(C)[C@H](C)CC[C@]3(CCC(=O)[C@H]32)[C@@H](C)[C@@H]1O | 0.977 (≈ 1.44 µM) | > 15.6 | 21.1 | 0.244 (≈ 0.361 µM) | –
12 | C=C[C@]1(C)C[C@@H](OC(=O)CSc2nc(N/N=C/c3ccccc3Br)c3ccsc3n2)[C@]2(C)[C@H](C)CC[C@]3(CCC(=O)[C@H]32)[C@@H](C)[C@@H]1O | 15.6 (≈ 21.5 µM) | > 15.6 | 22.8 | 0.977 (≈ 1.35 µM) | –
13 | C=C[C@]1(C)C[C@@H](OC(=O)CSc2nc(NCCO)c3c(C)csc3n2)[C@]2(C)[C@H](C)CC[C@]3(CCC(=O)[C@H]32)[C@@H](C)[C@@H]1O | 0.122 (≈ 0.203 µM) | 0.977 (≈ 1.62 µM) | 25.9 | 0.488 (≈ 0.811 µM) | –
14 | C=C[C@]1(C)C[C@@H](OC(=O)CSc2nc(N3CCN(CC)CC3)c3ccccc3n2)[C@]2(C)[C@H](C)CC[C@]3(CCC(=O)[C@H]32)[C@@H](C)[C@@H]1O | 0.488 (≈ 0.769 µM) | 3.91 (≈ 6.15 µM) | 22.1 | 0.244 (≈ 0.384 µM) | –
15 | C=C[C@]1(C)C[C@@H](OC(=O)CSc2nc(N/N=C/c3ccccc3[N+](=O)[O-])c3ccsc3n2)[C@]2(C)[C@H](C)CC[C@]3(CCC(=O)[C@H]32)[C@@H](C)[C@@H]1O | 7.81 (≈ 11.3 µM) | 7.81 (≈ 11.3 µM) | 21.5 | 0.0153 (≈ 0.0221 µM) | –
16 | C=C[C@]1(C)C[C@@H](OC(=O)CSc2nc(N/N=C/c3ccc(O)c(Br)c3)c3ccsc3n2)[C@]2(C)[C@H](C)CC[C@]3(CCC(=O)[C@H]32)[C@@H](C)[C@@H]1O | 3.91 (≈ 5.27 µM) | > 15.6 | 21 | 1.95 (≈ 2.63 µM) | –
17 | C=C[C@]1(C)C[C@@H](OC(=O)CSc2nc(N3CCN(CC)CC3)cc(C(F)(F)F)n2)[C@]2(C)[C@H](C)CC[C@]3(CCC(=O)[C@H]32)[C@@H](C)[C@@H]1O | 0.488 (≈ 0.748 µM) | 1.95 (≈ 2.99 µM) | 21 | 0.244 (≈ 0.374 µM) | –
18 | C=C[C@]1(C)C[C@@H](OC(=O)CSc2nc(C)cc(N3CCN(CC)CC3)n2)[C@]2(C)[C@H](C)CC[C@]3(CCC(=O)[C@H]32)[C@@H](C)[C@@H]1O | 0.244 (≈ 0.408 µM) | 3.91 (≈ 6.52 µM) | 23.9 | 0.122 (≈ 0.204 µM) | –
19 | C=C[C@]1(C)C[C@@H](OC(=O)CSc2nc(N/N=C/c3ccc(C(F)(F)F)cc3)c3ccsc3n2)[C@]2(C)[C@H](C)CC[C@]3(CCC(=O)[C@H]32)[C@@H](C)[C@@H]1O | 7.81 (≈ 10.9 µM) | > 15.6 | 22.2 | 0.244 (≈ 0.341 µM) | –
20 | C=C[C@]1(C)C[C@@H](OC(=O)CSc2nc(N/N=C/c3ccc(OC)cc3)c3ccsc3n2)[C@]2(C)[C@H](C)CC[C@]3(CCC(=O)[C@H]32)[C@@H](C)[C@@H]1O | 7.81 (≈ 11.5 µM) | > 15.6 | 18.8 | 0.0305 (≈ 0.0451 µM) | –
21 | C=C[C@]1(C)C[C@@H](OC(=O)CSc2nc(N3CCSCC3)c3ccsc3n2)[C@]2(C)[C@H](C)CC[C@]3(CCC(=O)[C@H]32)[C@@H](C)[C@@H]1O | 7.81 (≈ 12.4 µM) | > 15.6 | 14 | 1.95 (≈ 3.1 µM) | –
22 | C=C[C@]1(C)C[C@@H](OC(=O)CSc2nc(C)cc(NCCO)n2)[C@]2(C)[C@H](C)CC[C@]3(CCC(=O)[C@H]32)[C@@H](C)[C@@H]1O | 0.244 (≈ 0.447 µM) | 7.81 (≈ 14.3 µM) | 22.8 | 0.244 (≈ 0.447 µM) | –
23 | C=C[C@]1(C)C[C@@H](OC(=O)CSc2nc(N3CCCC3)c3ccsc3n2)[C@]2(C)[C@H](C)CC[C@]3(CCC(=O)[C@H]32)[C@@H](C)[C@@H]1O | 3.91 (≈ 6.53 µM) | > 15.6 | 17.8 | 0.061 (≈ 0.102 µM) | –
24 | C=C[C@]1(C)C[C@@H](OC(=O)CSc2nc(NCCO)cc(C(F)(F)F)n2)[C@]2(C)[C@H](C)CC[C@]3(CCC(=O)[C@H]32)[C@@H](C)[C@@H]1O | 0.488 (≈ 0.814 µM) | 0.488 (≈ 0.814 µM) | 29 | 0.488 (≈ 0.814 µM) | –
25 | C=C[C@]1(C)C[C@@H](OC(=O)CSc2nc(N3CCN(CC)CC3)c3c(C)csc3n2)[C@]2(C)[C@H](C)CC[C@]3(CCC(=O)[C@H]32)[C@@H](C)[C@@H]1O | 0.244 (≈ 0.373 µM) | 0.977 (≈ 1.49 µM) | 31.2 | 0.0076 (≈ 0.0116 µM) | –
26 | C=C[C@]1(C)C[C@@H](OC(=O)CSc2nccc(N3CCN(CC)CC3)n2)[C@]2(C)[C@H](C)CC[C@]3(CCC(=O)[C@H]32)[C@@H](C)[C@@H]1O | 0.122 (≈ 0.209 µM) | 1.95 (≈ 3.34 µM) | 28.6 | 0.122 (≈ 0.209 µM) | –
